Experimental data: ChEMBL document CHEMBL5096222, “Discovery of a Trifluoromethoxy Cyclopentanone Benzothiazole Receptor-Interacting Protein Kinase 1 Inhibitor as the Treatment for Alzheimer's Disease” (J Med Chem, 2022)

Assays:
[1] = molecular target: Receptor-interacting serine/threonine-protein kinase 3 (Homo sapiens, UniProt Q9Y572); experiment: Binding affinity to recombinant human wild type partial length RIPK3 (M1 to Q307 residues) expressed in bacterial expression system by KINOMEscan TM assay
Sequence of Receptor-interacting serine/threonine-protein kinase 3 (Q9Y572 whole entry, the tested form may be a part): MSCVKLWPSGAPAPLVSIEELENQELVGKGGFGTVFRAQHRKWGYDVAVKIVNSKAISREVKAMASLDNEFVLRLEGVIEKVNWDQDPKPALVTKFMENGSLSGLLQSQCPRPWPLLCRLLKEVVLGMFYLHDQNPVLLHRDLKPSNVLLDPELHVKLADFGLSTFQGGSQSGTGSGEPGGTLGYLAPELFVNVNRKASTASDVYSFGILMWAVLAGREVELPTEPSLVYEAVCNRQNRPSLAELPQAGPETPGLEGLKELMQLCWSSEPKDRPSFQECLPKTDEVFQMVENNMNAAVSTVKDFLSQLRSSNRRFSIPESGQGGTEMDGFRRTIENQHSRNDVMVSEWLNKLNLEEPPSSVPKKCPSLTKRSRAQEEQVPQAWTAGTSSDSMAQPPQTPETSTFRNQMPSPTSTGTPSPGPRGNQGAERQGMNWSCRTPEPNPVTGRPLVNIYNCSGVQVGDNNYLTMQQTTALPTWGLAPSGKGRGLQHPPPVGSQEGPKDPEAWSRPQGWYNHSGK

[2] = molecular target: T1, Receptor-interacting serine/threonine-protein kinase 1 (Homo sapiens, UniProt Q13546); experiment: Binding affinity to recombinant human wild type partial length RIPK1 (M1 to K305 residues) expressed in bacterial expression system by KINOMEscan TM assay
T1 sequence (Q13546 whole entry): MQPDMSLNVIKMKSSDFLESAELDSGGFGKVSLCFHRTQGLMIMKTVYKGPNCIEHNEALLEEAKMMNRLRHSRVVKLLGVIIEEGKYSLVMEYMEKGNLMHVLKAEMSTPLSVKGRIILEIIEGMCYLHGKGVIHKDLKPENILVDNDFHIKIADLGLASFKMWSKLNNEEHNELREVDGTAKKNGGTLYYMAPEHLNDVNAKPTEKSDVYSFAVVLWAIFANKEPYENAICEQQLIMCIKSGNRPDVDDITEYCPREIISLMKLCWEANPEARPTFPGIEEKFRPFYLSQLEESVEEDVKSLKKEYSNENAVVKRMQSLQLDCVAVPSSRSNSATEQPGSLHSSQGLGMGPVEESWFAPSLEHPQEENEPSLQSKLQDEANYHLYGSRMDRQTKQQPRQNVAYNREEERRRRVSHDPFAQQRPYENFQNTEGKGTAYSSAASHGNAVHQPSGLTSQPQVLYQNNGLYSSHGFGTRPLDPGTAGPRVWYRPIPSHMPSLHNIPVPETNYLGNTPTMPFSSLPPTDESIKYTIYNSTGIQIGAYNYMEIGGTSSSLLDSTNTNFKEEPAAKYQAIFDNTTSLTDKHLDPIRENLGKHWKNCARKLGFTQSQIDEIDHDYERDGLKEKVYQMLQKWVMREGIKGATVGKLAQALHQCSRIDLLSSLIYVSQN

[3] = Cytotoxicity against human HT-29 cells assessed as reduction in cell viability by celltiter-glo luminescent cell viability assay; format: toxicity, cell-based
HT-29 = experiment: Anti-necroptotic activity in TSZ induced human HT-29 cells assessed as increase in cell viability pretreated with compound followed by TSZ stimulation and measured after 16 hrs by celltiter-glo luminescent cell viability assay; format: functional, cell-based

| Compound | Kd [1] | Kd [2] | CC50 [3] | EC50 (HT-29) |
| --- | --- | --- | --- | --- |
| CC1(C)CC1C(=O)Nc1nc2cc(Oc3ccc(F)c(NC(=O)Cc4cccc(OC(F)(F)F)c4)c3)c(F)cc2s1 (stereo not drawn) | > 5000 nM | 25 nM | > 50000 nM | 12 nM |
| O=C(Cc1cccc(OC(F)(F)F)c1)Nc1cc(Oc2cc3nc(NC(=O)C4CCOC4)sc3cc2F)ccc1F (stereo not drawn) | > 5000 nM | 12 nM | > 50000 nM | 13 nM |
